For 39 molecules, IC50 results are on record in patent publication US20220280476A1, “KCNT1 INHIBITORS AND METHODS OF USE” (Praxis Precision Medicines, Inc., priority 2019, published 2022).

For the assay, the target named is T1, KCNT1 (KNa1.1, Slack) (Homo sapiens, UniProt Q5JUK3).
T1 construct: expressed in transfected cells; host or cells: HEK-TREX (tetracycline-inducible HEK cell line)
T1 sequence (Q5JUK3 1-1230): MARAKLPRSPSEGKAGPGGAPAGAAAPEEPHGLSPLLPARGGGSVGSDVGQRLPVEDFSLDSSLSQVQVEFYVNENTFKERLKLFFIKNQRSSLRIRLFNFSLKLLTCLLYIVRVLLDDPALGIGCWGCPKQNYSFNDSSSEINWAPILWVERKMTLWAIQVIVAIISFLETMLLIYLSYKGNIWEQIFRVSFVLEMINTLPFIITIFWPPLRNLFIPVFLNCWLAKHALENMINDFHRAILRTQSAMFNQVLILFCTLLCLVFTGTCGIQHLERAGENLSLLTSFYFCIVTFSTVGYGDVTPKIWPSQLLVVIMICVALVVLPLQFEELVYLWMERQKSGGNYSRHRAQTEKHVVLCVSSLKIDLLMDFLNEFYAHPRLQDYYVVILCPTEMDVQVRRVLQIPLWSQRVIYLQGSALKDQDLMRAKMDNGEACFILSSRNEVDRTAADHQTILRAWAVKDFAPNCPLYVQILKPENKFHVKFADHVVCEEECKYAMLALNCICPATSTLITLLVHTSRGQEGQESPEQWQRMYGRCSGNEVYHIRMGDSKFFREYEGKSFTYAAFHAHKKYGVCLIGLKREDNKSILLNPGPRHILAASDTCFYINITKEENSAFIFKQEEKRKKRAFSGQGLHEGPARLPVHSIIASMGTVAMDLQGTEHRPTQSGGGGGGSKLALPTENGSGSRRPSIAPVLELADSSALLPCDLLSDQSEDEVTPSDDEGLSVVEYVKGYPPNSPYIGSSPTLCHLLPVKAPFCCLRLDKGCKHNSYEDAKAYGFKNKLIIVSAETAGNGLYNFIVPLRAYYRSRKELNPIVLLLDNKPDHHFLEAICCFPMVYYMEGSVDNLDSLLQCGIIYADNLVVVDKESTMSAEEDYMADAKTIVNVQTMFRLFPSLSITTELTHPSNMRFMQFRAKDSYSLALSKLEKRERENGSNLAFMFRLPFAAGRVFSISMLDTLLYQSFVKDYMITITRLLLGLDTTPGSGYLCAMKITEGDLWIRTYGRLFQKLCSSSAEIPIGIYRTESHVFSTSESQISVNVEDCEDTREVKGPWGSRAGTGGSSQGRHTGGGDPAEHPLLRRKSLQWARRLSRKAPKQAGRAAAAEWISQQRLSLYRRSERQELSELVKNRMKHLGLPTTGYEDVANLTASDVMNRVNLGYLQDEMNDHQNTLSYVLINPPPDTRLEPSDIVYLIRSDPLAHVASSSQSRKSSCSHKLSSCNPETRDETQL
Nature of the assay: KCNT1-WT-Basal patch clamp assay (SyncroPatch 384PE, HEK-TREX inducible cell line). In kind it is cell-based. As to conditions: tetracycline inducible HEK-TREX cells; perforated patch; holding -80 mV, 100 ms step to 0 mV; room temperature; read-out: KCNT1 WB IC50. How it is done: KCNT1-WT-Basal—Patch Clamp Assay
Inhibition of KCNT1 (KNa1.1, Slack) was evaluated using a tetracycline inducible cell line (HEK-TREX). Currents were recorded using the SyncroPatch 384PE automated, patch clamp system. Pulse generation and data collection were performed with PatchController384 V1.3.0 and DataController384 V1.2.1 (Nanion Technologies). The access resistance and apparent membrane capacitance were estimated using built-in protocols. Current were recorded in perforated patch mode (10 μM escin) from a population of cells. The cells were lifted, triturated, and resuspended at 800,000 cells/ml. The cells were allowed to recover in the cell hotel prior to experimentation. Currents were recorded at room temperature. The external solution contained the following (in mM): NaCl 105, NMDG 40, KCl 4, MgCl2 1, CaCl2 5 and HEPES 10 (pH=7.4, Osmolarity ˜300 mOsm). The extracellular solution was used as the wash, reference and compound delivery solution. The internal solution contained the following (in mM): NaCl 70, KF 70, KCl 10, EGTA 5, HEPES 5 and Escin 0.01 (pH=7.2, Osmolarity ˜295 mOsm). Escin is made at a 5 mM stock in water, aliquoted, and stored at −20° C. The compound plate was created at 2× concentrated in the extracellular solution. The compound was diluted to 1:2 when added to the recording well. The amount of DMSO in the extracellular solution was held constant at the level used for the highest tested concentration. A holding potential of −80 mV with a 100 ms step to 0 mV was used. Mean current was measured during the step to 0 mV. […] The average mean current from 3 sweeps was calculated and the % inhibition of each compound was calculated. The % Inhibition as a function of the compound concentration was fit with a Hill equation to derive IC50, slope, min and max parameters. If KCNT1 inhibition was less than 50% at the highest tested concentration or if an IC50 could not be calculated, then a percent inhibition was reported in place of the IC50.

Broadly, the IC50 is the concentration at which inhibition is half-maximal.

Consider `NC(=O)c1ccc(C(=O)N[C@@H]2CCc3cc(Cl)ccc32)cc1` [Compound II-26], for which the IC50 was in the range of 1 to 20 µM.
As for `CNS(=O)(=O)c1ccc(C(=O)N[C@@H]2CCc3cc(Cl)ccc32)cc1` [Compound II-27], the half-inhibitory concentration (IC50) was at most 1 µM.
With `CN(C)S(=O)(=O)c1ccc(C(=O)N[C@@H]2CCc3cc(Cl)ccc32)cc1` [Compound II-28] the figure was at most 1 µM; with `O=C(N[C@H]1CCc2cc(Cl)ccc21)c1ccc(NS(=O)(=O)C(F)(F)F)cc1` [Compound II-29, N-[(1S)-5-chloroindan-1-yl]-4-(trifluoromethylsulfonylamino)benzamide], at least 20 µM; with `CCS(=O)(=O)c1ccc(C(=O)N[C@@H]2CCc3cc(Cl)ccc32)cc1` [Compound II-30], at most 1 µM.
In the case of `CNS(=O)(=O)Nc1ccc(C(=O)N[C@@H]2CCc3cc(Cl)ccc32)cc1` [Compound II-32], the half-inhibitory concentration (IC50) is at most 1 µM.
As for `Cc1cc(S(C)(=O)=O)ccc1C(=O)N[C@@H]1CCc2cc(Cl)ccc21` [Compound II-33], the IC50 was at least 20 µM.
For the molecule `CN(C)S(=O)(=O)Nc1ccc(C(=O)N[C@@H]2CCc3cc(Cl)ccc32)cc1` [Compound II-34], the IC50 lay in the range of 1 to 20 µM.
Consider `CS(=O)(=O)c1ccc(C(=O)N[C@@H]2CCc3cc(Cl)ccc32)cc1F` [Compound II-35], for which the IC50 is at most 1 µM.
With `CS(=O)(=O)c1ccc(C(=O)N[C@@H]2CCc3cc(Cl)ccc32)c(F)c1` [Compound II-36], the IC50 is 1 to 20 µM.
Consider `NS(=O)(=O)Nc1ccc(C(=O)N[C@@H]2CCc3cc(Cl)ccc32)cc1` [Compound II-37], for which the IC50 fell in the range of 1 to 20 µM.
With `O=C(N[C@@H]1CCc2cc(Cl)ccc21)c1ccc(S(=O)(=O)C(F)(F)F)cc1` [Compound II-38], the IC50 was at most 1 µM.
Then `O=C(N[C@@H]1CCc2cc(Cl)ccc21)c1ccc(S(=O)(=O)C2CC2)cc1` [Compound II-39], with at most 1 µM; and `COCCS(=O)(=O)c1ccc(C(=O)N[C@@H]2CCc3cc(Cl)ccc32)cc1` [Compound II-40], with 1 to 20 µM; and `O=C(N[C@@H]1CCc2cc(Cl)ccc21)c1ccc(S(=O)(=O)C(F)F)cc1` [Compound II-42], with at most 1 µM.
With `COCCN(c1ccc(C(=O)N[C@@H]2CCc3cc(Cl)ccc32)cc1)S(C)(=O)=O` [Compound II-43], the IC50 fell in the range of 1 to 20 µM.
For the molecule `CN(C)CCN(c1ccc(C(=O)N[C@@H]2CCc3cc(Cl)ccc32)cc1)S(C)(=O)=O` [Compound II-44], the IC50 was in the range of 1 to 20 µM.
As to `CS(=O)(=O)N(CC(F)(F)F)c1ccc(C(=O)N[C@@H]2CCc3cc(Cl)ccc32)cc1` [Compound II-45], the IC50 lay in the range of 1 to 20 µM.
Then `CS(=O)(=O)N(CCOC(F)(F)F)c1ccc(C(=O)N[C@@H]2CCc3cc(Cl)ccc32)cc1` [Compound II-46], with at least 20 µM.
Then `CS(=O)(=O)N(CCO)c1ccc(C(=O)N[C@@H]2CCc3cc(Cl)ccc32)cc1` [Compound II-47], with 1 to 20 µM; and `Cc1cc(C(=O)N[C@@H]2CCc3cc(Cl)ccc32)ccc1S(C)(=O)=O` [Compound II-48], with 1 to 20 µM.
On to `CN(C)C(=O)CN(c1ccc(C(=O)N[C@@H]2CCc3cc(Cl)ccc32)cc1)S(C)(=O)=O` [Compound II-49], for which the IC50 lay within 1 to 20 µM.
As for `CS(=O)(=O)N(c1ccc(C(=O)N[C@@H]2CCc3cc(Cl)ccc32)cc1)C1COC1` [Compound II-50], the IC50 lay in the range of 1 to 20 µM.
For `O=C(N[C@@H]1CCc2cc(Cl)ccc21)c1ccc(S(=O)(=O)CC(F)F)cc1` [Compound II-51], the IC50 was in the range of 1 to 20 µM.
With `O=C(N[C@@H]1CCc2cc(Cl)ccc21)c1ccccc1O` [Compound III-3] the figure was at most 1 µM; with `O=C(N[C@@H]1CCc2cc(Cl)ccc21)c1ccc(F)cc1O` [Compound III-4], at most 1 µM; with `CS(=O)(=O)Nc1ccc(C(=O)N[C@@H]2CCc3cc(Cl)ccc32)c(O)c1` [Compound III-5], at most 1 µM.
On to `O=C(N[C@@H]1CCc2cc(Cl)ccc21)c1cc(F)ccc1O` [Compound III-6], for which the IC50 was at most 1 µM.
As to `O=C(N[C@@H]1CCc2cc(Cl)ccc21)c1cccc(Cl)c1O` [Compound III-7], the IC50 was at most 1 µM.
As to `O=C(N[C@@H]1CCc2cc(Cl)ccc21)c1c(O)cccc1F` [Compound III-8], the IC50 fell in the range of 1 to 20 µM.
Consider `O=C(N[C@@H]1CCc2cc(Cl)ccc21)c1cccc(F)c1O` [Compound III-9], for which the IC50 is at most 1 µM.
For `O=C(N[C@@H]1CCc2cc(Cl)ccc21)c1cccc(C(F)(F)F)c1O` [Compound III-10], the IC50 was at most 1 µM.
With `O=C(N[C@@H]1CCc2cc(Cl)ccc21)c1cc(Cl)ccc1O` [Compound III-11] the figure was at most 1 µM; with `Cc1ccc(O)c(C(=O)N[C@@H]2CCc3cc(Cl)ccc32)c1` [Compound III-12], at most 1 µM.
`COc1cccc(O)c1C(=O)N[C@@H]1CCc2cc(Cl)ccc21` [Compound III-13]: the IC50 is 1 to 20 µM.
In the case of `COc1cccc(C(=O)N[C@@H]2CCc3cc(Cl)ccc32)c1O` [Compound III-14], the IC50 was at most 1 µM.
Then `Cc1cccc(C(=O)N[C@@H]2CCc3cc(Cl)ccc32)c1O` [Compound III-15], with at most 1 µM; and `CC(=O)Nc1cccc(C(=O)N[C@@H]2CCc3cc(Cl)ccc32)c1O` [Compound III-16], with at most 1 µM; and `Cc1cccc(O)c1C(=O)N[C@@H]1CCc2cc(Cl)ccc21` [Compound III-17], with at least 20 µM.
